Test results taken from PMC9841576, “Characterisation of C101248: A novel selective THIK-1 channel inhibitor for the modulation of microglial NLRP3-inflammasome” (Neuropharmacology, 2023).
pIC50: −log10 of the molar value. Read-outs that look alike come from different tables or passages of the source.

Assays:
THIK-1 = target: T1, THIK-1 (Homo sapiens, UniProt Q9HB14); assay: FLIPR thallium influx assay, HEK-hTHIK-1 cells; type: cell-based
T1 construct: expressed in transfected cells
T1 sequence (Q9HB14 1-408): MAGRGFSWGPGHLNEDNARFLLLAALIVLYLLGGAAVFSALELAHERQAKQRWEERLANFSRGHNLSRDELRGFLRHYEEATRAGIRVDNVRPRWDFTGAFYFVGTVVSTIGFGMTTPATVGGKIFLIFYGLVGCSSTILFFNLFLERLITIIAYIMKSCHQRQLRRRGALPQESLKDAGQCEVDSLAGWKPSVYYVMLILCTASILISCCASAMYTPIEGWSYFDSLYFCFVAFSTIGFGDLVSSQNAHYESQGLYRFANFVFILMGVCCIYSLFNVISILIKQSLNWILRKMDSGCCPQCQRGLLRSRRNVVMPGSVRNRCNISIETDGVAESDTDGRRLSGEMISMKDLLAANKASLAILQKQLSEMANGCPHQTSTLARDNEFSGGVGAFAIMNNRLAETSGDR
Method: HEK-293 cells were transfected with human THIK-1, TREK-1, TWIK-2, or mouse THIK-1 cDNA cloned into pcDNA3.1, using either Fugene HD transfection reagent (Promega) or electroporation (MaxCyte STX instrument). Cells stably expressing the relevant genes were selected based on resistance to 500 μg/ml geneticin (Gibco). For human THIK-1 and TWIK-2 expressing cells, monoclonal lines were isolated by limited dilution cloning; mouse THIK-1 and human TREK-1 expressing cells were maintained as polyclonal pools. The HEK-293 pools and monoclones stably expressing the relevant genes were maintained in DMEM (Life Technologies), supplemented with 10% FCIII (HyClone, Fetal clone III) and 500 μg/ml geneticin. A CHO-Kv2.1 cell line was purchased from Millipore (accession NM_004975) and maintained in F12 (Life Technologies), supplemented with 10% FCSIII (Thermo Scientific) and 500 μg/ml geneticin (Life Technologies). For thallium flux assays, banks of frozen cell aliquots were prepared the day prior to assay, cells were thawed into media and seeded into PDL coated 384-well plates (Corning) at 25,000 (human/mouse THIK-1, TREK-1) or 30,000 (TWIK-2) cells/well (25 μl/well). CHO-Kv2.1 cells were seeded into non-PDL coated plates (Corning) at 5000 cells/well. Plated cells were incubated overnight at 37 °C, 5% CO2 in a humidified atmosphere. For Q-Patch assays, cells were cultured for 7 days prior to assay, dissociated, and diluted to 1–2.5 million/ml in EX-CELL ACF serum free media containing HEPES (25 mM; Life Technologies), penicillin/streptomycin (100 U/ml, 100 μg/ml; Life Technologies) and a trypsin inhibitor (0.04 mg/ml).
A fluorescence-based thallium influx assay (Molecular Devices potassium assay kit) was used to monitor channel activity. In brief, component A was reconstituted in 17 ml of chloride-free assay buffer (130 mM sodium D-gluconate, 5 mM potassium D-gluconate, 2 mM calcium D-gluconate, 1 mM magnesium D-gluconate, 5 mM NaHCO3, 20 mM HEPES; pH adjusted to 7.4 with NaOH and filtered (0.45 μm filter)) and component C reconstituted in 30 μl of DMSO. Components A and C were combined, and probenecid was added (Life Technologies; final assay concentration (FAC) 4.75 mM for HEK cell lines and 2.47 mM for CHO-Kv2.1) to provide the final dye solution. Media was removed from the cell plates and replaced with dye (20 μl/well) and the plates were incubated at room temperature in the dark for 60 min. On the day of the assay, a diluted compound plate (3x FAC in 1.5% DMSO) was created. Control wells contained either DMSO vehicle (1.5%, 3x FAC) or tetrapentylammonium chloride (TPA; Sigma, 258962; 1.5 mM in 1.5% DMSO, 3x FAC). A 3x thallium stimulation plate was also prepared, to provide a FAC of either 1 mM (human THIK-1) or 3 mM (mouse THIK-1, TREK-1, TWIK-2) thallium sulphate (in assay buffer). For Kv2.1, the FAC of thallium sulphate was 2.6 mM and this was prepared in assay buffer containing potassium sulphate (Sigma P9458; FAC 23.3 mM). Following 60 min of dye loading, 10 μl from the 3x FAC compound plate was added into the cell plate, which was then incubated for 15 min at room temperature in the dark. Using a fluorescent imaging plate reader (FLIPR) tetra plate reader, 15 μl thallium stimulus solution was added to the cell plate and the fluorescence signal recorded every second for 1 min (excitation: 470–495 nm, emission: 515–575 nm).

[1] = tested on: Adrenergic α1, Non-Selective; assay: Promiscuity screening panel, radiometric binding; conditions: Rat
Method: (§1) C101248 was further profiled in a promiscuity screening panel, using radiometric binding assays, against a selection of 18 diverse targets at 10 μM (Supplementary Table 2).
(§2) Supplementary Table 2: Promiscuity screening panel data for C101248. Compound was screened at 10 µM, in duplicate, using radiometric binding assays

Androgen (Testosterone) = Androgen (Testosterone) (Homo sapiens, UniProt P10275); assay: Promiscuity screening panel, radiometric binding; conditions: read-out: % inhibition at 10 µM (n=2)
Method: as §1, §2

[2] = tested on: Calcium Channel L-Type, Benzothiazepine; assay: Promiscuity screening panel, radiometric binding; conditions: Rat
Method: as §1, §2

Cannabinoid CB1 = Cannabinoid CB1 (Homo sapiens, UniProt P21554); assay: Promiscuity screening panel, radiometric binding; conditions: read-out: % inhibition at 10 µM (n=2)
Method: as §1, §2

Cannabinoid CB2 = Cannabinoid CB2 (Homo sapiens, UniProt P34972); assay: Promiscuity screening panel, radiometric binding; conditions: read-out: % inhibition at 10 µM (n=2)
Method: as §1, §2

Dopamine D1 = Dopamine D1 (Homo sapiens, UniProt P21728); assay: Promiscuity screening panel, radiometric binding; conditions: read-out: % inhibition at 10 µM (n=2)
Method: as §1, §2

[3] = tested on: GABAA, Flunitrazepam, Central; assay: Promiscuity screening panel, radiometric binding; conditions: Rat
Method: as §1, §2

Histamine H1 = Histamine H1 (Homo sapiens, UniProt P35367); assay: Promiscuity screening panel, radiometric binding; conditions: read-out: % inhibition at 10 µM (n=2)
Method: as §1, §2

Muscarinic M1 = Muscarinic M1 (Homo sapiens, UniProt P11229); assay: Promiscuity screening panel, radiometric binding; conditions: read-out: % inhibition at 10 µM (n=2)
Method: as §1, §2

Opiate μ (OP3, MOP) = Opiate μ (OP3, MOP) (Homo sapiens, UniProt P35372); assay: Promiscuity screening panel, radiometric binding; conditions: read-out: % inhibition at 10 µM (n=2)
Method: as §1, §2

Phosphodiesterase PDE3 = assay: Promiscuity screening panel, radiometric binding; conditions: Phosphodiesterase PDE3, Human
Method: as §1, §2

[4] = target: Serotonin (5-Hydroxytryptamine) 5-HT2B (Homo sapiens, UniProt P41595); assay: Promiscuity screening panel, radiometric binding; conditions: read-out: % inhibition at 10 µM (n=2)
Method: as §1, §2

[5] = target: Transporter, Serotonin (5-Hydroxytryptamine) (SERT) (Homo sapiens, UniProt P31645); assay: Promiscuity screening panel, radiometric binding; conditions: read-out: % inhibition at 10 µM (n=2)
Method: as §1, §2

Sequence of Dopamine D1 (P21728 whole entry): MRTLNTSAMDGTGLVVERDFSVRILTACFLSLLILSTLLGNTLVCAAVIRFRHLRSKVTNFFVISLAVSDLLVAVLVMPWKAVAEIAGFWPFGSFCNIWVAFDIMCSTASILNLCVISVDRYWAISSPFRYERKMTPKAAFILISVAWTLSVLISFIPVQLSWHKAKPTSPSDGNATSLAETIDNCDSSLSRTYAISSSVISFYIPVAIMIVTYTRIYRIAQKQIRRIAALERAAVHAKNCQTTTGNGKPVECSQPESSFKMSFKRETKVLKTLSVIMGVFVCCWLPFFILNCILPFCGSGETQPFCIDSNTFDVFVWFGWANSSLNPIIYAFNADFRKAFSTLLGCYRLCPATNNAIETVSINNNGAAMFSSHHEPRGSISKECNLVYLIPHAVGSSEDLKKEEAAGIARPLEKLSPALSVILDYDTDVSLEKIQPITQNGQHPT
Sequence of Cannabinoid CB2 (P34972 whole entry): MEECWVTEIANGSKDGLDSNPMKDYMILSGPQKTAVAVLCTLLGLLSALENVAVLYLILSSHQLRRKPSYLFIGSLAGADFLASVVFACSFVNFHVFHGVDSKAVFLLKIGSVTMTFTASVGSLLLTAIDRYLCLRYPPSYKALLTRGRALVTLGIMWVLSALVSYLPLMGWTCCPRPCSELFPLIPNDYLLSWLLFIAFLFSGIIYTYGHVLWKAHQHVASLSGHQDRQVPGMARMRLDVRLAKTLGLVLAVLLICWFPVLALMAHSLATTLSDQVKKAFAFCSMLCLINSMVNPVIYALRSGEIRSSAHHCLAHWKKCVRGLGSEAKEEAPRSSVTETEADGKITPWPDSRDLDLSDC
Sequence of Serotonin (5-Hydroxytryptamine) 5-HT2B (P41595 whole entry): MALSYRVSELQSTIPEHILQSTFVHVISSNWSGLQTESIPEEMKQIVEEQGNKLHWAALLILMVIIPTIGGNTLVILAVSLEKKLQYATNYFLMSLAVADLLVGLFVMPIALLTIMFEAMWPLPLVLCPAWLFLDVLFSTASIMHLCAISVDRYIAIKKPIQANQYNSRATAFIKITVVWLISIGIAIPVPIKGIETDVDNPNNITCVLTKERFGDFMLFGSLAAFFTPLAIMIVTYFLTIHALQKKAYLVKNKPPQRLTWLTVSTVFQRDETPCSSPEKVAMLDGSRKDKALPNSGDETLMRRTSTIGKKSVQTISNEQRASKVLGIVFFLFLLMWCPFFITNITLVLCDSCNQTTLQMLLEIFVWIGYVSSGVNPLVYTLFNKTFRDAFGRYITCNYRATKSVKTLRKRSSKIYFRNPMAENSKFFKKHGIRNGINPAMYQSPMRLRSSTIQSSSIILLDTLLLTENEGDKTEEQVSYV
Sequence of Opiate μ (OP3, MOP) (P35372 whole entry): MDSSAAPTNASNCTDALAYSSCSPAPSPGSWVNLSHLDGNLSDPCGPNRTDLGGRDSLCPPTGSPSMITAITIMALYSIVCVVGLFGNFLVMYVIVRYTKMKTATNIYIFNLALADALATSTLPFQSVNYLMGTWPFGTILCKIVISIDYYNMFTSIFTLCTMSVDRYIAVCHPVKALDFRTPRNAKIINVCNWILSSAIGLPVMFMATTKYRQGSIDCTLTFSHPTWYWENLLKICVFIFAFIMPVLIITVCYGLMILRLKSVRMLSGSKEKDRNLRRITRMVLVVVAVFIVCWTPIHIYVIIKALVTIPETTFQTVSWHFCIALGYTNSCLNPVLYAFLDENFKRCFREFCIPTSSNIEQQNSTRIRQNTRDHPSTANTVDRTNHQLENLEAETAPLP
Sequence of Histamine H1 (P35367 whole entry): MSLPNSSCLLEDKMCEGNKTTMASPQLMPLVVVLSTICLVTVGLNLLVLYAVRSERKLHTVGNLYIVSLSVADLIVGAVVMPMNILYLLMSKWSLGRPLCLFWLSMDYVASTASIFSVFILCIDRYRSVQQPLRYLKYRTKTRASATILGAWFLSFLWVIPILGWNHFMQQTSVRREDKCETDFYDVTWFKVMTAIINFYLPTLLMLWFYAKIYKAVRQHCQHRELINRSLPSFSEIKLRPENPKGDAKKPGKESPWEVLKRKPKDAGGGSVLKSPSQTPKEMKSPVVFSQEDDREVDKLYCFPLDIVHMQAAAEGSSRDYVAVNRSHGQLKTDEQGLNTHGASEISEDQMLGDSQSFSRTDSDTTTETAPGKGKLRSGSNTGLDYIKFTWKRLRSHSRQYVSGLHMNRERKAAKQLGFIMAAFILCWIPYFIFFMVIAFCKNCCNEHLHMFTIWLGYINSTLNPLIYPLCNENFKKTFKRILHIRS
Sequence of Muscarinic M1 (P11229 whole entry): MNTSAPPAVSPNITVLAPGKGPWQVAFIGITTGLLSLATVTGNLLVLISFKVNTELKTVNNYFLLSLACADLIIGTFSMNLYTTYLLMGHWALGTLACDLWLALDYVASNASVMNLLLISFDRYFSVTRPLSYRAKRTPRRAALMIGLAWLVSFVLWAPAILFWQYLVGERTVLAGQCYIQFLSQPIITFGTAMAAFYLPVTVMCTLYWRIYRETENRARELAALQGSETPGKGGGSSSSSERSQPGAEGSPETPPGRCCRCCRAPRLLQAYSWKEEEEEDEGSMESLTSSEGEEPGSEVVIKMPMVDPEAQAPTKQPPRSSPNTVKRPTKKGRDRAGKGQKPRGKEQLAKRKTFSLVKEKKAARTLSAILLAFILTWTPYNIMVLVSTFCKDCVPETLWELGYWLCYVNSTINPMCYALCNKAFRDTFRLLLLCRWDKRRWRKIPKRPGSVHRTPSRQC
Sequence of Transporter, Serotonin (5-Hydroxytryptamine) (SERT) (P31645 whole entry): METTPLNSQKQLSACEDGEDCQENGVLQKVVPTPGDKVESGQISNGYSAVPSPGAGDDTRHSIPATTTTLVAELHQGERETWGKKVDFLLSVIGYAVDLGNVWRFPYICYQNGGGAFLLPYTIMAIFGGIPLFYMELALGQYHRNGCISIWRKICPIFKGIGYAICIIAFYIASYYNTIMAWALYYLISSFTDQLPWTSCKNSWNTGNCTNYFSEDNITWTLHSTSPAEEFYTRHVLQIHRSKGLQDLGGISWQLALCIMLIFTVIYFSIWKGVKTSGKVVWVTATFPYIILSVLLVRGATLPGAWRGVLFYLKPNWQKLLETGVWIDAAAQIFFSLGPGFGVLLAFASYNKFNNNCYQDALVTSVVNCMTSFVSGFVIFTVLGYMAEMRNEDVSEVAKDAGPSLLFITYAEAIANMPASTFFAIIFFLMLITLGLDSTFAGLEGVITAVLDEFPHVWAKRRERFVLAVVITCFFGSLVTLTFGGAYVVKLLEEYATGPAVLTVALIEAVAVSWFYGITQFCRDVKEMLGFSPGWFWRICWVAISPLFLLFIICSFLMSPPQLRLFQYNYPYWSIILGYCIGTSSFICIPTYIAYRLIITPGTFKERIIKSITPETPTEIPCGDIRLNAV
Sequence of Cannabinoid CB1 (P21554 whole entry): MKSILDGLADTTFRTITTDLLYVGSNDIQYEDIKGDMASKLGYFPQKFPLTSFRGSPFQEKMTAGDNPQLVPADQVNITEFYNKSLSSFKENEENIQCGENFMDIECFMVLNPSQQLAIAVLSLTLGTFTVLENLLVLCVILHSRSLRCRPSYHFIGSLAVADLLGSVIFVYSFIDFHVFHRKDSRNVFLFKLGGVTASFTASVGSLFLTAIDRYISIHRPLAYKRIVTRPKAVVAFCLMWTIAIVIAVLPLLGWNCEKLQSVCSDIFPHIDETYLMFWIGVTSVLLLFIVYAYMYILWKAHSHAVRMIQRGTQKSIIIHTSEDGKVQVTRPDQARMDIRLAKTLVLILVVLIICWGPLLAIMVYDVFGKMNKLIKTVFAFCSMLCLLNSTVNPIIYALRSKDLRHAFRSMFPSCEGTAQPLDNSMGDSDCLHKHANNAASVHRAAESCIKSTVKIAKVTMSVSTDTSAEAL
Sequence of Androgen (Testosterone) (P10275 whole entry): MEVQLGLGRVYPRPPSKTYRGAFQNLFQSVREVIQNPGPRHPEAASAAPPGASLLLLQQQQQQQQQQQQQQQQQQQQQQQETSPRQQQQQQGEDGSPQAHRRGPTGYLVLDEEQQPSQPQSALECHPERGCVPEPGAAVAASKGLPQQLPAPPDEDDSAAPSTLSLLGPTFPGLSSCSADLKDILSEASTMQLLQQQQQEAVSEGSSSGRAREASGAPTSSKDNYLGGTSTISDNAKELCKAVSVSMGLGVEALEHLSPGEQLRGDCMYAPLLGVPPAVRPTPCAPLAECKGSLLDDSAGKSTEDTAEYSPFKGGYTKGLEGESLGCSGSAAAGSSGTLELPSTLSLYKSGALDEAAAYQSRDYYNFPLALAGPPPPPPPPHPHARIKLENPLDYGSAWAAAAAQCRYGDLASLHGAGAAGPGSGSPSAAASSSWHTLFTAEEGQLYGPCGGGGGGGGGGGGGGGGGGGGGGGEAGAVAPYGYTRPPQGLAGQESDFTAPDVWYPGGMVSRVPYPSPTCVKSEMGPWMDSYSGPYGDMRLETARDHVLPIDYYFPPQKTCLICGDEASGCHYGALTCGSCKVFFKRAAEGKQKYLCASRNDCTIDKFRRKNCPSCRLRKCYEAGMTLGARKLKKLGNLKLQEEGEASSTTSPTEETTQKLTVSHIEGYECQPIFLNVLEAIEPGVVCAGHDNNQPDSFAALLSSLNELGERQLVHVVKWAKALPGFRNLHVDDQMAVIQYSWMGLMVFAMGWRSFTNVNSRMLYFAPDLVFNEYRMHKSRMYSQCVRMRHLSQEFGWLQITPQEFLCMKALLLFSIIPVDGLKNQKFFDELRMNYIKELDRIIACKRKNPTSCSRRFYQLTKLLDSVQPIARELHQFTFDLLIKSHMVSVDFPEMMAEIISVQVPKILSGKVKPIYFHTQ

pIC50 (THIK-1; HEK-hTHIK-1, normalised to TPA controls, read-out: IC50, inhibition of THIK-1 constitutive activity (thallium influx)): 7.34 | maximum inhibition (THIK-1; HEK-hTHIK-1, thallium influx, normalised to TPA controls): 102% | pIC50 (THIK-1; human THIK-1, read-out: IC50, inhibition of human THIK-1 (abstract)): ~7.30 | potency relative to tetrapenthylammonium chloride (TPA) (THIK-1; human and mouse THIK-1 constitutive activity, thallium influx and Q-patch): 100 times | % inhibition at 10 µM (n=2) [1]: 12% | inhibition at 10 µM (Androgen (Testosterone)): 6% | % inhibition at 10 µM (n=2) [2]: 3% | inhibition at 10 µM (Cannabinoid CB1): 22% | inhibition at 10 µM (Cannabinoid CB2): 0% | inhibition at 10 µM (Dopamine D1): -1% | % inhibition at 10 µM (n=2) [3]: -9% | inhibition at 10 µM (Histamine H1): 21% | inhibition at 10 µM (Muscarinic M1): -3% | inhibition at 10 µM (Opiate μ (OP3, MOP)): -9% | % inhibition at 10 µM (n=2) (Phosphodiesterase PDE3): 1% | inhibition at 10 µM [4]: 24% | inhibition at 10 µM [5]: -7%
SMILES: Nc1nonc1-c1nc2ccccc2n1Cc1ccncc1 [C101248]
